Active and inactive are the calls of the source. The rule behind the calls is not given here.
Assays:
Acetylcholinesterase [1] = molecular target: T1, Acetylcholinesterase (Homo sapiens, UniProt P22303); assay: Non-competitive inhibition of human AChE using acetylthiocholine iodide as substrate assessed as inhibition constant at 0.03 to 0.3 uM by Dixon plot analysis
[2] = Cmax in male Wistar rat at 20 mg/kg, po measured upto 32 hrs by high-performance liquid chromatography; type: ADME, organism-based; conditions: in vivo
[3] = Toxicity in Drosophila melanogaster Oregon R-positive assessed as reduction in cell viability upto 50 uM measured until 15 days; conditions: 360 h, time 15 day
[4] = Acute toxicity in female Wistar rat assessed as histopathological changes in kidneys at 100 to 500 mg/kg, po measured after 14 days; type: organism-based; conditions: in vivo, 336 h, dose 100-500 mg/kg, time 14 day
Drosophila melanogaster [5] = assay: Reversal of ey-GAL4 driven UAS-amyloid beta induced cellular toxicity in Drosophila melanogaster Oregon R-positive model assessed as increase in cell viability in gut at 10 uM by MTT assay relative to control; type: functional
Rattus norvegicus [6] = assay: (§1) Reversal of amyloid beta (1 to 42 residues) induced cognitive impairment in female Wistar rat assessed as increase in neuronal density in brain at 20 mg/kg, po pretreated with amyloid beta for 7 days followed by compound administration and measured after 5 days by Nissls staining based light microscopic analysis; type: functional, organism-based; conditions: time 5.0 day
Acetylcholinesterase [7] = molecular target: T1, Acetylcholinesterase; assay: Non-competitive inhibition of human AChE using varying concentrations of acetylthiocholine iodide as substrate assessed as reduction in Vmax with constant Km at 0.03 to 0.3 uM by Lineweaver-Burk double reciprocal plot analysis; conditions: dose 0.03-0.3 µM
[8] = molecular target: Amyloid-beta precursor protein (Homo sapiens) (UniProt P05067); assay: Inhibition of self induced amyloid beta (1 to 42 residues) (unknown origin) aggregation at 5 to 20 uM measured after 48 hrs by thioflavin T based fluorescence analysis relative to control; conditions: dose 5-20 µM
Sequence of Amyloid-beta precursor protein (Homo sapiens) (P05067 whole entry, the tested form may be a part): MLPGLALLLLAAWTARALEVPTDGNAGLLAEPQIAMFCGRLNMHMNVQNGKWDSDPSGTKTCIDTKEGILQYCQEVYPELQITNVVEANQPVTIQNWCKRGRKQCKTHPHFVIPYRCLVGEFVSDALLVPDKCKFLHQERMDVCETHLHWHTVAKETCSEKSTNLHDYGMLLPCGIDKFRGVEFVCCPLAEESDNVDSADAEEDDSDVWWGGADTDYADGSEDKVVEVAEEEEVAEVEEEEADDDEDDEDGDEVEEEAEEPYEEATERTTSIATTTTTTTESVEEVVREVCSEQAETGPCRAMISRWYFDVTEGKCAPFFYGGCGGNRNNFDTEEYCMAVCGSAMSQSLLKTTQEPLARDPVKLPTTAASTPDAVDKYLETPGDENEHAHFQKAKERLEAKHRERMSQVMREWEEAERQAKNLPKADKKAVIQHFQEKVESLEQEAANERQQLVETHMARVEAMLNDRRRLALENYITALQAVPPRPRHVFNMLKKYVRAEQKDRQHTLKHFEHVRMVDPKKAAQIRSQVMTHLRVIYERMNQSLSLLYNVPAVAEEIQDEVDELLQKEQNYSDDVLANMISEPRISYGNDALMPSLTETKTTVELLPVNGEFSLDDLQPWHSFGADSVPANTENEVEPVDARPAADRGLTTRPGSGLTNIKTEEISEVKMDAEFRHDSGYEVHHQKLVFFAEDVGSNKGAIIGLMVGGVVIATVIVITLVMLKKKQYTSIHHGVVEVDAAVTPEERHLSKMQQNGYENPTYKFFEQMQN

Drosophila melanogaster [9] = assay: Reversal of ey-GAL4 driven UAS-amyloid beta induced cellular toxicity in Drosophila melanogaster Oregon R-positive model assessed as increase in cell viability in gut at 50 uM by MTT assay relative to control; type: functional
Acetylcholinesterase [10] = molecular target: T1, Acetylcholinesterase; assay: Inhibition of human AChE using acetylthiocholine iodide as substrate assessed as reduction in enzyme activity at 10 to 100 times IC50 incubated for 30 mins
Drosophila melanogaster [11] = assay: Reversal of ey-GAL4 driven UAS-amyloid beta induced cellular toxicity in Drosophila melanogaster Oregon R-positive model assessed as increase in rescued eye phenotype at 15 uM by trinocular stereo-zoom microscope relative to control; type: functional
Drosophila melanogaster [12] = assay: Reversal of ey-GAL4 driven UAS-amyloid beta induced cellular toxicity in Drosophila melanogaster Oregon R-positive model assessed as reduction in mild ommatidial death eye phenotype at 15 uM by trinocular stereo-zoom microscope relative to control; type: functional; design: scale not given: the % may be the effect or the level left
[13] = AUC (0 to t) in male Wistar rat at 20 mg/kg, po measured upto 32 hrs by high-performance liquid chromatography; type: ADME, organism-based; conditions: in vivo
[14] = Acute toxicity in female Wistar rat assessed as adverse side effects at 100 to 500 mg/kg, po measured after 14 days; type: organism-based; conditions: in vivo, 336 h, dose 100-500 mg/kg, time 14 day
[15] = molecular target: Amyloid-beta precursor protein (Homo sapiens) (UniProt P05067); assay: Inhibition of amyloid beta (1 to 42 residues) (unknown origin) aggregation assessed as disaggregation by measuring reduction in fluorescence intensity measured after 3 days by confocal microscopic analysis; conditions: time 3.0 day
Rattus norvegicus [16] = assay: Reversal of amyloid beta (1 to 42 residues) induced cognitive impairment in female Wistar rat assessed as increase in total platform crossing at 20 mg/kg, po pretreated with amyloid beta for 7 days followed by compound administration and measured after 5 days by Morris water maze test; type: functional, organism-based; conditions: time 5.0 day
Rattus norvegicus [17] = assay: Reversal of amyloid beta (1 to 42 residues) induced cognitive impairment in female Wistar rat assessed as reduction in escape latency time at 20 mg/kg, po pretreated with amyloid beta for 7 days followed by compound administration and measured after 5 days by Morris water maze test; type: functional, organism-based; conditions: time 5.0 day
[18] = molecular target: Amyloid-beta precursor protein (Homo sapiens) (UniProt P05067); assay: Inhibition of human AChE induced amyloid beta (1 to 42 residues) (unknown origin) aggregation assessed as reduction in NFI measured after 48 hrs by thioflavin T based fluorescence analysis; conditions: dose 5-20 µM
[19] = Elimination half life in male Wistar rat at 20 mg/kg, po measured upto 32 hrs by high-performance liquid chromatography; type: ADME, organism-based; conditions: in vivo, read-out: beta t1/2 (converted)
Beta-secretase 1 = Beta-secretase 1 (Homo sapiens, UniProt P56817); assay: Inhibition of human BACE-1 measured after 2 hrs by FRET assay
Sequence of Beta-secretase 1 (P56817 whole entry): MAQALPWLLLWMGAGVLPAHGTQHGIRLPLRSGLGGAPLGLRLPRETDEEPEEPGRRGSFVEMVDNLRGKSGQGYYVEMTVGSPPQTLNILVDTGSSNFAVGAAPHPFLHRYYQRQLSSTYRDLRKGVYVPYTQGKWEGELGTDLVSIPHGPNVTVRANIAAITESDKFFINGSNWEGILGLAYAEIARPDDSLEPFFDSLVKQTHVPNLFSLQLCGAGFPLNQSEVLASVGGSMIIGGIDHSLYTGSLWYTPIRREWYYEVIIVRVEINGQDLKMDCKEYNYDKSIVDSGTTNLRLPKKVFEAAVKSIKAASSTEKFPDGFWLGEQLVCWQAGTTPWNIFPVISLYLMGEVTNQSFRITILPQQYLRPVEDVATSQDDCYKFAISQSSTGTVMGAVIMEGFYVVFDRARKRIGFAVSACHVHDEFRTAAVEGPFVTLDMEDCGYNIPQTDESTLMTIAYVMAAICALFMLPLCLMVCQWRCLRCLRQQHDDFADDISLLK

[20] = Acute toxicity in female Wistar rat assessed as histopathological changes in heart at 100 to 500 mg/kg, po measured after 14 days; type: organism-based; conditions: in vivo, 336 h, dose 100-500 mg/kg, time 14 day
[21] = Acute toxicity in female Wistar rat assessed as effect on hepatic functional parameters at 100 to 500 mg/kg, po measured after 14 days; type: organism-based; conditions: in vivo, 336 h, dose 100-500 mg/kg, time 14 day
[22] = Acute toxicity in female Wistar rat assessed as weight loss at 100 to 500 mg/kg, po measured upto 5 days; type: organism-based; conditions: in vivo, 120 h, dose 100-500 mg/kg, time < 5 day
Acetylcholinesterase [23] = molecular target: T1, Acetylcholinesterase; assay: Inhibition of human AChE using acetylthiocholine iodide as substrate assessed as reversal of enzyme activity by measuring remaining activity at 10 to 100 times IC50 incubated for 30 mins followed by dilution to 0.1 to 1 times IC50 with substrate
[24] = molecular target: Amyloid-beta precursor protein (Homo sapiens) (UniProt P05067); assay: Inhibition of self induced amyloid beta (1 to 42 residues) (unknown origin) aggregation assessed as reduction in NFI measured after 48 hrs by thioflavin T based fluorescence analysis; conditions: dose 5-20 µM
[25] = Drug concentration in male Wistar rat brain homogenate at 20 mg/kg, po measured after 4 days; type: ADME, organism-based; conditions: time 4 day, read-out: Ct
Rattus norvegicus [26] = assay: as §1, with “arrangements” for “density”; type: functional, organism-based; conditions: time 5.0 day
Drosophila melanogaster [27] = assay: Reversal of ey-GAL4 driven UAS-amyloid beta induced cellular toxicity in Drosophila melanogaster Oregon R-positive model assessed as reduction in severe ommatidial death eye phenotype at 10 uM by trinocular stereo-zoom microscope relative to control; type: functional; design: scale not given: the % may be the effect or the level left
[28] = Acute toxicity in female Wistar rat assessed as effect on renal functional parameters at 100 to 500 mg/kg, po measured after 14 days; type: organism-based; conditions: in vivo, 336 h, dose 100-500 mg/kg, time 14 day
[29] = MRT in male Wistar rat at 20 mg/kg, po measured upto 32 hrs by high-performance liquid chromatography; type: ADME, organism-based; conditions: in vivo
[30] = Neurotoxicity against retinoic acid/BDNF differentiated human SH-SY5Y cells assessed as reduction in cell viability at 80 uM incubated for 24 hrs by MTT assay relative to control; type: toxicity, cell-based
in vitro = conditions: PAMPA
Drosophila melanogaster [31] = assay: Reversal of ey-GAL4 driven UAS-amyloid beta induced cellular toxicity in Drosophila melanogaster Oregon R-positive model assessed as increase in cell viability in gut at 1 uM by MTT assay relative to control; type: functional
Cholinesterase = Cholinesterase (Homo sapiens, UniProt P06276); assay: Inhibition of human serum BChE using butyrylthiocholine iodide as substrate preincubated for 30 mins followed by substrate addition and measured after 30 mins by DTNB based Ellman's method
Sequence of Cholinesterase (P06276 whole entry, the tested form may be a part): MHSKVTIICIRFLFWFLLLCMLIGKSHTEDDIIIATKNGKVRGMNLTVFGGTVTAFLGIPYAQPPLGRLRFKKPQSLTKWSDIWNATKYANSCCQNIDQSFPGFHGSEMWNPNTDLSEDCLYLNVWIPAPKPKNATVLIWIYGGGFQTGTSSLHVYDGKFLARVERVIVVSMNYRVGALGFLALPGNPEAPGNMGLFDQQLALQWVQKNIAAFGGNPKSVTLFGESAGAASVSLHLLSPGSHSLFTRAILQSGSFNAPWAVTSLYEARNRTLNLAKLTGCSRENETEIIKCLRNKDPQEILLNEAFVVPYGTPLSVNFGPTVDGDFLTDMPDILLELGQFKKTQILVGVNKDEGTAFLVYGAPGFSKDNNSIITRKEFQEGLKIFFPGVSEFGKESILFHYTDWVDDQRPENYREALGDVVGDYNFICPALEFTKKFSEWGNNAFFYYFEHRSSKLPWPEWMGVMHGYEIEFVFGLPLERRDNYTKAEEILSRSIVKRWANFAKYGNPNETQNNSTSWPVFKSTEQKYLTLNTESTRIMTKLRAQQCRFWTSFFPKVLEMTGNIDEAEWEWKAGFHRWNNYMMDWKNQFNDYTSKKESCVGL

Drosophila melanogaster [32] = assay: Reversal of ey-GAL4 driven UAS-amyloid beta induced cellular toxicity in Drosophila melanogaster Oregon R-positive model assessed as increase in rescued eye phenotype at 5 uM by trinocular stereo-zoom microscope relative to control; type: functional

T1 sequence (P22303 whole entry): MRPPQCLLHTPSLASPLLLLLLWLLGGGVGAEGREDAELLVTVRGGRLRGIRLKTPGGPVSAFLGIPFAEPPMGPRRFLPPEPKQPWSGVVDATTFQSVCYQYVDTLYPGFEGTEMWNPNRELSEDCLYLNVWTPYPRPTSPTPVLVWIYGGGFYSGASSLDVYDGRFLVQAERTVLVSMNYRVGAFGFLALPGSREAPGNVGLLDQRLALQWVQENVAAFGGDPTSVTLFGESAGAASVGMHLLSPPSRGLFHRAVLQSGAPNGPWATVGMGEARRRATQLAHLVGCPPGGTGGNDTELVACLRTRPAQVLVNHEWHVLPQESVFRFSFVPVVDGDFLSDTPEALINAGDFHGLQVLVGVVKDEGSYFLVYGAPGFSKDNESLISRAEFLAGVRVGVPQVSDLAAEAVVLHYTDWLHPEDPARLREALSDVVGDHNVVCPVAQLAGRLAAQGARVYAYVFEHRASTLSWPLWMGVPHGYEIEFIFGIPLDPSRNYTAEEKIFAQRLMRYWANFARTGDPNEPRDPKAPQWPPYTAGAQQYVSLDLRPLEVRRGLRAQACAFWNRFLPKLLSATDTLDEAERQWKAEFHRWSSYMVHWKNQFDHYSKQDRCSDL

COc1cc2ncnc(N3CCN(Cc4ccccc4)CC3)c2cc1OC
Ki (Acetylcholinesterase [1]): 246 nM | Cmax [2]: 1340 ng/mL | Activity [3]: Non-Toxic | Activity [4]: Non-Toxic | Activity (Drosophila melanogaster [5]): 62% | Activity (Rattus norvegicus [6]): Active | Activity (Acetylcholinesterase [7]): Active | inhibition [8]: 27.3% | Activity (Drosophila melanogaster [9]): 75% | inhibition (Acetylcholinesterase [10]): Active | Activity (Drosophila melanogaster [11]): 57% | Activity (Drosophila melanogaster [12]): 30% | AUC(0-t) at 32 h [13]: 6990 ng·h/mL | Activity [14]: Non-Toxic | Activity [15]: Active | Activity (Rattus norvegicus [16]): Active | Activity (Rattus norvegicus [17]): Active | inhibition [18]: Dose-Dependent Effect | half-life [19]: 3.11 h | IC50 (Beta-secretase 1): 231 nM | Activity [20]: Non-Toxic | Activity [21]: Non-Toxic | Activity [22]: Toxic | Activity (Acetylcholinesterase [23]): > 60% | inhibition [24]: Dose-Dependent Effect | concentration at 96 h [25]: 977 ng/mL | Activity (Rattus norvegicus [26]): Active | Activity (Drosophila melanogaster [27]): 23.3% | Activity [28]: Non-Toxic | MRT [29]: 6.07 h | Activity [30]: 26% | Papp at 18 h, 25 ug/ml (in vitro): 6.03 ×10⁻⁶ cm/s | Activity (Drosophila melanogaster [31]): 69% | IC50 (Cholinesterase): > 10000 nM | Activity (Drosophila melanogaster [32]): 27%
